Results on four compounds are retold here after US20150276760A1, “Method for Screening a Compound Capable of Inhibiting the Notch1 Transcriptional Activity” (INSERM (institut National de la Sante et de la Recherche …, priority 2012, published 2015).

Data set [1] concerns HES1, HEY1 and DTX1 expression in U937 cells. In words: Notch-target gene expression in U937 cells without Notch activation (Q-RT-PCR). The settings on record: TCP 1 mM, S2101 30 μM.
Data set [2] concerns ICN1-induced activation of p6XCBS-luc. Briefly: Notch-responsive reporter assay (p6XCBS-luc) in HeLa cells. It counts as cell-based. The protocol:
HeLa cells were co-transfected with 1 μg of a Notch-responsive firefly luciferase reporter containing 6 CSL-binding sites (p6XCBS-luc), 100 ng of TK-Renilla-luciferase vector (transfection control) and various amount (0.1-0.3-1 μg) of the MigR1-ICN1 expression vector. Transfections were performed in 6-wells plates using JetPEI reagent (Polyplus) according to manufacturer's instruction. Firefly luciferase activity was measured 24 hours post-transfection and normalized to Renilla luciferase expression. The values in the figures are Relative Luciferase Units (RLU) represented as fold induction over the luciferase activity measured in the absence of ICN1 (cells transfected with p6XCBS-luc and an empty vector).

Data set [3] deals with Notch-induced HES1 transcription in U937 cells. Briefly: Ligand (Delta-like 4)-mediated HES1 activation in U937 cells. The settings on record: recombinant DL-4 Notch ligand.
Data set [4] concerns ICN1-binding sites of Notch-target genes. In words: Chromatin immunoprecipitation (ChIP) in SupT1 cells. In kind it is cell-based, human. On the procedure: For ChIP experiments, 6×10^7 cells were cross-linked for 10 min with 1% formaldehyde (sigma) at room temperature. The cross-linking reaction was stopped by adding glycine to a final concentration of 0.125 M for 10 min at room temperature. Cells were washed twice with cold PBS and incubated on ice for 7 min in 2 mL of buffer containing 15 mM Tris-HCl (pH 7.4), 0.3 M sucrose (sigma), 60 mM KCl, 15 mM NaCl, 5 mM MgCl2, 0.1 mM EGTA and 0.1% NP-40. Each cell suspension was then layered over 8 mL sucrose cushion (15 mM Tris-HCl, 1.2 M sucrose, 60 mM KCl, 15 mM NaCl, 5 mM MgCl2 and 0.1 mM EGTA) and centrifuged at 10.000 g for 20 min at 4° C. Nuclear pellet was lysed with 1 mL lysis buffer (50 mM Tris-HCl pH 8, 10 mM EDTA, 1% SDS) complemented with Protease Inhibitor Cocktail (Roche). Chromatin was sonicated to generate DNA-fragments of approximately 300 to 500 bp in an ultra sonicator water bath (Bioruptor, Diagenode) using ten cycles of 30 s/on and 30 s/off. After centrifugation at 13.000 g for 20 min, an aliquot of sonicated DNA was reverse-crosslinked by addition of 250 mM NaCl and incubation at 65° C. for 6 h. DNA was extracted by phenol-chloroform, quantified using nanodrop and run on a 1% agarose gel to confirm DNA fragment size. The antibodies were pre-bound to Invitogen Dynal magnetic beads (Protein A or G beads) in PBS containing BSA (5 mg/mL) and chromatin was pre-cleared with beads for 4 h at 4° C. Immunoprecipitation was performed using 20 μg of chromatin and 2-3 μg of antibody coupled to 15 μL of beads in ChIP buffer (20 mM Tri-HCl pH 8, 150 mM NaCl, 2 mM EDTA, and 1% Triton X-100) complemented with Protease Inhibitor Cocktail. After overnight incubation at 4° C., beads were washed 4 times with wash buffer 1 (20 mM Tri-HCl pH 8, 150 mM NaCl, 2 mM EDTA, 1% Triton X-100 and 0.1% SDS) and 4 times with wash buffer 2 (20 mM Tri-HCl pH 8, 500 mM NaCl, 2 mM EDTA, 1% Triton X-100 and 0.1% SDS) using the DynaMag-2 magnet (Invitogen). Elution of immunoprecipitated DNA was performed in buffer containing 1% SDS and 100 mM NaHCO3. Crosslinking was reversed by incubation at 65° C. and proteins were degraded by addition of proteinase K (Sigma). Eluted DNA and 10% of input DNA were purified using phenol-chloroform extraction followed by isopropanol precipitation or using QIAquick PCR purification (Qiagen), according to the manufacturer instructions. Resultant DNA was dissolved in 60 μL of water containing 10 mM Tris-HCl pH 8. […] PCR measurements were performed in duplicate.

The subject of data set [5] is Notch-target genes in pre-T cells. In words: ChIP in T-cell precursors from in vitro T-cell differentiation. The settings on record: GSI 5 μM, 2 days. It counts as cell-based, human. The protocol:
For ChIP experiments, 6×10^7 cells were cross-linked for 10 min with 1% formaldehyde (sigma) at room temperature. The cross-linking reaction was stopped by adding glycine to a final concentration of 0.125 M for 10 min at room temperature. Cells were washed twice with cold PBS and incubated on ice for 7 min in 2 mL of buffer containing 15 mM Tris-HCl (pH 7.4), 0.3 M sucrose (sigma), 60 mM KCl, 15 mM NaCl, 5 mM MgCl2, 0.1 mM EGTA and 0.1% NP-40. Each cell suspension was then layered over 8 mL sucrose cushion (15 mM Tris-HCl, 1.2 M sucrose, 60 mM KCl, 15 mM NaCl, 5 mM MgCl2 and 0.1 mM EGTA) and centrifuged at 10.000 g for 20 min at 4° C. Nuclear pellet was lysed with 1 mL lysis buffer (50 mM Tris-HCl pH 8, 10 mM EDTA, 1% SDS) complemented with Protease Inhibitor Cocktail (Roche). […] DNA was extracted by phenol-chloroform, quantified using nanodrop and run on a 1% agarose gel to confirm DNA fragment size. […]
CD34+ cells from human umbilical cord blood samples were sorted (Stemcell technologies) (≧95% purity) and cultured on OP9-DL1 stromal cells in αMEM media containing FLT3L (5 ng/ml), and IL7 (5 ng/ml) for 16 days. At day 16, most progenitors (˜90%) were engaged to the T-cell lineage (pre-T cells) as determined by the expression of CD5 and CD1a. pre-T-cells were cultured for 2 additional days on OP9-DL1 cells in presence or absence of GSI (5 μM).

Data set [6] deals with Notch-activation complex (ICN1-CSL-MAML1). Briefly: Immunopurification / coimmunoprecipitation from SupT1 nuclear extracts (western blot). Further details: species or system human. The protocol: After two step affinity chromatography, protein complexes containing both tagged-proteins were peptide eluted and analyzed by western blot. For endogenous protein immunoprecipitations, nuclear extracts (500 μg-1 mg) were incubated with antibodies (1-2 μg) for 4 hr, followed by addition of 10 μL protein G Sepharose beads (Fast flow, Sigma) for 45 min before washing five times with 800 μL of buffer B015 in spin columns (Pierce).
Cells were lysed in lysis buffer (50 mM Tris-HCl, 120 mM NaCl, 5 mM EDTA, 0.5% NP-40 and PMSF) and briefly sonicated. Cell lysates and immunoprecipitates were boiled in SDS sample buffer and resolved on a 7% SDS-PAGE gel (Biorad). Proteins were liquid-transferred (Biorad) to nitrocellulose membrane in transfer buffer (20% methanol, 25 mM Tris, 192 mM Glycine, 0.037% SDS) during 90 min at 100V.

The next data set concerns monoamine oxidases. As to conditions: compared with TCP; cited from earlier work.
For data set [7], the system named is Notch-target genes in T-ALL cells. Briefly: Notch-target gene expression in T-ALL cell lines (Q-RT-PCR).
The test system of data set [8] is Notch-responsive genes in SupT1 cells. Briefly: Notch-responsive gene expression in GSI-treated SupT1 cells.
In data set [9] the test system is SupT1, HPB-ALL, TALL1 and DND41. In words: Cell count proliferation assay of T-ALL cell lines. In kind it is cell-based, human. The settings on record: shRNA knockdown. On the procedure: (§1) The following antibodies were used for flow cytometry: CD127-PE clone R34.34 and the IgG1-PE (from Beckman Coulter). Flow cytometry was performed on a BD FACSCalibur or MACSQUANT cytometer (Miltenyi). For cell proliferation assays, cells were plated at 2×10^5/mL in triplicate. Proliferation of shRNA-transduced T-ALL cells was followed by cell counting using the MACSQUANT cytometer (gated on live cells). Flow-cytometric cell cycle analysis was performed by staining DNA content of T-ALL cell lines using DAPI. SupT1 cells were also analyzed with EdU-DAPI staining to precisely define the percentage of cells at the G0/G1 phase. […] Cells were washed with PBS and fixed with PBS-4% PFA for 10 minutes at room temperature. After permeabilization, EdU incorporation was detected following the manufacturer's instructions (Click-iT, invitrogen) and total DNA content was measured using DAPI.

For the next data set, the system named is T-ALL cell lines. In words: Flow-cytometric cell cycle analysis of T-ALL cell lines. It counts as cell-based, human. The settings on record: shRNA knockdown. On the procedure: as §1
The subject of the next data set is SupT1 xenograft tumor. In words: Subcutaneous xenograft tumor model. In kind it is in vivo. The settings on record: SupT1 cells expressing shRNA, SCID mice. On the procedure: Female SCID mice (C.B.-17/IcrHan™Hsd-Prkdcscid) were obtained from Harlan Laboratories (Gannat, France). Animals were maintained in specific pathogen-free animal housing at the Center for Exploration and Experimental Functional Research (CERFE, Evry, France) animal facility. […] 72 hours post-infection, cells were selected with 2 μg/mL puromycin for 72 hours. At this point, the cells were maintained in fresh media for 2 days prior to injection into animals. Prior injection, cells were washed and resuspended in DMEM: 50% Matrigel (BD Pharmingen). 5×10^6 cells […] were injected to each mouse by subcutaneous route in the right flank (n=5 per group). Tumor volume was evaluated by measuring tumor diameters, with a calliper, three times a week during the follow-up period (23 days). The formula TV (mm^3)=[length (mm)×width (mm)2]/2 was used, where the length and the width are the longest and the shortest diameters of the tumor, respectively.

As for `N[C@@H]1C[C@H]1c1ccccc1` (racemic) [TCP, tranylcypromine], the “HES1, HEY1 and DTX1 expression” value in data set [1] was “increased”. The “ICN1-induced activation of the Notch-responsive reporter (p6XCBS-luc)” value in data set [2] is reported as “impaired”. Further, the “Notch-induced HES1 activation” value in data set [3] is “reduced HES1 activation”.
As to `C[C@H](NC(=O)Cc1cc(F)cc(F)c1)C(=O)N[C@H]1N=C(c2ccccc2)c2ccccc2N(C)C1=O` [GSI], the “H3K27me2 mark at IL7R and DTX1 loci” value in data set [4] (SupT1) was “increase”. For the same compound, in [4] (SupT1, ICN1-binding sites), the “CSL and LSD1 binding” value is listed as “did not significantly affect”; the “ICN1 and MAML1 on chromatin” value was “released”; the “recruitment of PBAF, PHF8 and AF4p12” value is reported as “reduced”. For the same compound, the “RNAPII recruitment to Notch-target genes” value in data set [5] was “impaired”. Besides, in [6] (SupT1, GSI 500 nM, 8 hours), the “MAML1 association with CSL, LSD1, PB1 and BRG1” value is “severely altered”; the “binding of PHF8 and AF4p12 to MAML1” value is on record as “only marginally reduced”. Moreover, in [6] (SupT1 cells treated with DMSO or GSI), the “LSD1 binding to endogenous MAML1 and ICN1” value was “strongly reduced”.
Regarding `NC1CC1c1cc(F)cc(F)c1OCc1ccccc1` (stereo not shown) [S2101], the “HES1, HEY1 and DTX1 expression” value in data set [1] was “increased”. In data set [3], the “Notch-induced HES1 activation” value is reported as “reduced HES1 activation”. The “effect on monoamine oxidases” value in the data set on monoamine oxidases was “much weaker effect”. Besides, the “Notch-target genes expression on LSD1 inhibitor treatment” value in data set [7] is reported as “dose-dependent repression”. Also, in data set [8], the “expression of Notch-responsive genes” value is on record as “depression of Notch-responsive genes” and the “expression of the control S14 gene” value is reported as “not affected”.
“PHF8 shRNA: shRNA targeting PHF8, SEQ ID NO: 1; pSUPER retroviral vector (GCTTCATGATCGAGTGTGACA)”: in [9], the proliferation entry is “marked reduction”. Besides, in the data set with T-ALL cell lines (Notch-independent T-ALL cell lines), the “cell-cycle progression in MOLT4 and H9” value was “did not significantly affect”. In addition, the “cell cycle in NOTCH1-dependent T-ALL cells” value with T-ALL cell lines was “G0/G1 cell-cycle arrest”. Further, the “Notch-mediated expression of c-MYC” value in data set [7] (shRNA knockdown) is listed as “suppressed”. Moreover, in the data set with SupT1 xenograft tumor, the tumor establishment entry is reported as “did not establish tumors”.
